Values of other authors in PMC9366781 (ACS Omega, 2022).
Like-named read-outs stand apart in the source and are kept apart here.

Test system: EGFR

| Substance | affinity to the EGFR (different EGFR-positive cell lines (among these A431, MDA-MB-468, U87MG)) | affinity to the EGFR (same study as GE11 monomer) [nM] |
| --- | --- | --- |
| Tyr-His-Trp-Tyr-Gly-Tyr-Thr-Pro-Gln-Asn-Val-Ile [GE11] | more than 1 mM | – |
| hEGF: endogenous EGFR ligand human epidermal growth factor, internal reference standard | – | 5.1 ± 0.9 |
